{"source": "PubChem BioAssay AID248", "about": "(DTP/NCI, 2004)", "tested_on": "L1210 leukemia ip in BDF1 mice, survival T/C", "experiment": "NCI In Vivo Anticancer Drug Screen. Data for tumor model L1210 Leukemia (intraperitoneal) in B6D2F1 (BDF1) mice", "conditions": "endpoint: mean survival time, higher = longer survival", "summary_of_the_method": "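Antitumor effect is assessed in tumor-bearing animals. Survival in the compound arm is compared with a vehicle-dosed control arm and expressed as their quotient.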", "key": {"[1]": {"conditions": "dose: 100.0 mg/kg/injection, schedule: Q01DX009 (ip), vehicle: saline with Tween-80"}, "[2]": {"conditions": "dose: 200.0 mg/kg/injection, schedule: Q01DX009 (ip), vehicle: saline with Tween-80"}, "[3]": {"conditions": "dose: 100.0 mg/kg/injection, schedule: Q01DX001 (ip), vehicle: saline"}, "[4]": {"conditions": "dose: 200.0 mg/kg/injection, schedule: Q01DX001 (ip), vehicle: saline"}, "[5]": {"conditions": "dose: 400.0 mg/kg/injection, schedule: Q01DX009 (ip), vehicle: saline with Tween-80"}}, "note": "Toxic doses and inconclusive results are not listed. Square brackets hold non-standard residues; d marks the D form. Peptide text beside a SMILES is read from it. * marks the point of attachment. ξ: configuration not given here. ξY = NC(Cc1ccc(O)cc1)C(=O)O; Cbz = O=C(OCc1ccccc1)*; OBn = c1ccc(CO*)cc1", "data": [{"smiles": "CC1(C)C(=O)C2C=CCC21", "note": "(configuration not stated)", "values": [{"measurement": "T/C", "setting": "dose: 50.0 mg/kg/injection, schedule: Q01DX009 (ip), vehicle: saline with Tween-80", "value": "91 % of control"}, {"measurement": "T/C", "setting": "[1]", "value": "98 % of control"}, {"measurement": "T/C", "setting": "[2]", "value": "95 % of control"}]}, {"smiles": "CCCCCCNC(=S)Nc1ccccc1", "values": [{"measurement": "T/C", "setting": "dose: 50.0 mg/kg/injection, schedule: Q01DX001 (ip), vehicle: saline", "value": "97 % of control"}, {"measurement": "T/C", "setting": "[3]", "value": "103 % of control"}, {"measurement": "T/C", "setting": "[4]", "value": "97 % of control"}]}, {"smiles": "CC1(C)CC(OP(OC2CC(C)(C)N(O)C(C)(C)C2)OC2CC(C)(C)N(O)C(C)(C)C2)CC(C)(C)N1O", "values": [{"measurement": "T/C", "setting": "dose: 100.0 mg/kg/injection, schedule: Q01DX001 (ip), vehicle: water", "value": "100 % of control"}, {"measurement": "T/C", "setting": "dose: 200.0 mg/kg/injection, schedule: Q01DX001 (ip), vehicle: water", "value": "94 % of control"}, {"measurement": "T/C", "setting": "dose: 400.0 mg/kg/injection, schedule: Q01DX001 (ip), vehicle: water", "value": "94 % of control"}]}, {"smiles": "O=C(CNC(=O)OCc1ccccc1)NC(Cc1ccc(O)cc1)C(=O)OCc1ccccc1", "note": "(stereo not drawn) (Cbz-Gly-[ξY]-OBn)", "values": [{"measurement": "T/C", "setting": "dose: 100.0 mg/kg/injection, schedule: Q04DX003 (ip), vehicle: Klucel (hydroxypropylcellulose) (HPC)", "value": "96 % of control"}, {"measurement": "T/C", "setting": "dose: 200.0 mg/kg/injection, schedule: Q04DX003 (ip), vehicle: Klucel (hydroxypropylcellulose) (HPC)", "value": "97 % of control"}, {"measurement": "T/C", "setting": "dose: 400.0 mg/kg/injection, schedule: Q04DX003 (ip), vehicle: Klucel (hydroxypropylcellulose) (HPC)", "value": "91 % of control"}]}, {"smiles": "NC(CSC(c1ccccc1)(c1ccccc1)c1ccc(F)cc1)C(=O)O", "note": "(configuration not stated)", "values": [{"measurement": "T/C", "setting": "dose: 5.5 mg/kg/injection, schedule: Q01DX009 (ip), vehicle: saline", "value": "117 % of control"}, {"measurement": "T/C", "setting": "dose: 8.2 mg/kg/injection, schedule: Q01DX009 (ip), vehicle: saline", "value": "117 % of control"}, {"measurement": "T/C", "setting": "dose: 50.0 mg/kg/injection, schedule: Q01DX009 (ip), vehicle: saline", "value": "161 % of control"}, {"measurement": "T/C", "setting": "dose: 100.0 mg/kg/injection, schedule: Q01DX009 (ip), vehicle: other", "value": "100 % of control"}]}, {"smiles": "O=C(/C=C/c1ccccc1)CCN1CCC2CCC(C2)C1", "note": "(configuration not stated)", "values": [{"measurement": "T/C", "setting": "dose: 50.0 mg/kg/injection, schedule: Q01DX001 (ip), vehicle: carboxymethylcellulose (CMC)", "value": "103 % of control"}, {"measurement": "T/C", "setting": "dose: 100.0 mg/kg/injection, schedule: Q01DX001 (ip), vehicle: carboxymethylcellulose (CMC)", "value": "97 % of control"}]}, {"smiles": "O=C(O)CCBr", "values": [{"measurement": "T/C", "setting": "[3]", "value": "93 % of control"}, {"measurement": "T/C", "setting": "[4]", "value": "104 % of control"}]}, {"smiles": "COc1ccc(C(c2ccccc2)N(N=O)C(=O)c2ccccc2)cc1", "note": "(configuration not stated)", "values": [{"measurement": "T/C", "setting": "dose: 38.0 mg/kg/injection, schedule: Q04DX002 (ip), vehicle: Klucel (hydroxypropylcellulose) (HPC)", "value": "94 % of control"}, {"measurement": "T/C", "setting": "dose: 75.0 mg/kg/injection, schedule: Q04DX002 (ip), vehicle: Klucel (hydroxypropylcellulose) (HPC)", "value": "94 % of control"}, {"measurement": "T/C", "setting": "dose: 150.0 mg/kg/injection, schedule: Q04DX002 (ip), vehicle: Klucel (hydroxypropylcellulose) (HPC)", "value": "94 % of control"}]}, {"smiles": "CCCCN1CCN2C(=O)N(CC)CCC2C1", "note": "(configuration not stated)", "values": [{"measurement": "T/C", "setting": "dose: 25.0 mg/kg/injection, schedule: Q04DX003 (ip), vehicle: saline", "value": "91 % of control"}, {"measurement": "T/C", "setting": "dose: 50.0 mg/kg/injection, schedule: Q04DX003 (ip), vehicle: saline", "value": "98 % of control"}, {"measurement": "T/C", "setting": "[3]", "value": "102 % of control"}, {"measurement": "T/C", "setting": "dose: 100.0 mg/kg/injection, schedule: Q04DX003 (ip), vehicle: saline", "value": "116 % of control"}]}, {"smiles": "Cc1ccc(C(=O)/C=C/c2ccc(Cl)c(Cl)c2)c(C)c1", "values": [{"measurement": "T/C", "setting": "[1]", "value": "92 % of control"}, {"measurement": "T/C", "setting": "dose: 100.0 mg/kg/injection, schedule: Q04DX002 (ip), vehicle: saline with Tween-80", "value": "98 % of control"}, {"measurement": "T/C", "setting": "[2]", "value": "95 % of control"}, {"measurement": "T/C", "setting": "dose: 200.0 mg/kg/injection, schedule: Q04DX002 (ip), vehicle: saline with Tween-80", "value": "91 % of control"}, {"measurement": "T/C", "setting": "[5]", "value": "109 % of control"}, {"measurement": "T/C", "setting": "dose: 400.0 mg/kg/injection, schedule: Q04DX002 (ip), vehicle: saline with Tween-80", "value": "91 % of control"}]}, {"smiles": "BrCCCc1ccccc1", "values": [{"measurement": "T/C", "setting": "dose: 75.0 mg/kg/injection, schedule: Q01DX001 (ip), vehicle: saline", "value": "95 % of control"}, {"measurement": "T/C", "setting": "dose: 150.0 mg/kg/injection, schedule: Q01DX001 (ip), vehicle: saline", "value": "97 % of control"}]}, {"smiles": "COc1ccc(C(=O)Nc2ccccc2SC)cc1", "values": [{"measurement": "T/C", "setting": "dose: 100.0 mg/kg/injection, schedule: Q04DX002 (ip), vehicle: Klucel (hydroxypropylcellulose) (HPC)", "value": "99 % of control"}, {"measurement": "T/C", "setting": "dose: 200.0 mg/kg/injection, schedule: Q04DX002 (ip), vehicle: Klucel (hydroxypropylcellulose) (HPC)", "value": "96 % of control"}, {"measurement": "T/C", "setting": "dose: 400.0 mg/kg/injection, schedule: Q04DX002 (ip), vehicle: Klucel (hydroxypropylcellulose) (HPC)", "value": "102 % of control"}]}, {"smiles": "O=C(NCc1cnccn1)c1ccccc1Cl", "values": [{"measurement": "T/C", "setting": "[1]", "value": "86 % of control"}, {"measurement": "T/C", "setting": "dose: 100.0 mg/kg/injection, schedule: Q04DX003 (ip), vehicle: saline with Tween-80", "value": "96 % of control"}, {"measurement": "T/C", "setting": "[2]", "value": "104 % of control"}, {"measurement": "T/C", "setting": "dose: 200.0 mg/kg/injection, schedule: Q04DX003 (ip), vehicle: saline with Tween-80", "value": "96 % of control"}, {"measurement": "T/C", "setting": "[5]", "value": "102 % of control"}, {"measurement": "T/C", "setting": "dose: 400.0 mg/kg/injection, schedule: Q04DX003 (ip), vehicle: saline with Tween-80", "value": "104 % of control"}]}, {"smiles": "NCC(=O)NC(Cc1c[nH]c2ccccc12)C(=O)O", "note": "(configuration not stated)", "values": [{"measurement": "T/C", "setting": "dose: 100.0 mg/kg/injection, schedule: Q01DX001 (ip), vehicle: acetone", "value": "97 % of control"}, {"measurement": "T/C", "setting": "dose: 200.0 mg/kg/injection, schedule: Q01DX001 (ip), vehicle: acetone", "value": "98 % of control"}, {"measurement": "T/C", "setting": "dose: 400.0 mg/kg/injection, schedule: Q01DX001 (ip), vehicle: acetone", "value": "92 % of control"}]}]}
